Test results from article PMC10965793, “Synthesis and biological evaluation of pyridylpiperazine hybrid derivatives as urease inhibitors” (Frontiers in Chemistry, 2024).
“Also recorded” adds a separate entry of the source. Like-named read-outs stand apart in the source and are kept apart here.

Experiments:
[1] = target: jack bean urease (Canavalia ensiformis, UniProt P07374); test: biochemical
Description: The inhibitory activity of 1-(3-nitropyridin-2-yl)piperazine derivatives (5a-o; 7a-k) was assessed in vitro against urease with minor modifications using the indophenol method ([Al Azzam et al., 2022]; [Da Costa et al., 2022]). At first, 1 mM solution of a test compound was prepared in 10% DMSO followed by the preparation of the reaction mixture. The reaction mixture was prepared by adding 30 μL of reaction buffer (100 mmol/L of urea, 1 mmol/L of EDTA, 10 mmol/L of LiCl2, 10 mmol/L of KH2PO4; pH: 8.2), 50 μL of R1 (120 mmol/L phosphate buffer, 60 mmol/L sodium salicylate, 5 mmol/L sodium nitroprusside, 1 mmol/L EDTA and 5 KU/L urease), 10 μL of substrate (1 mM urea), and 10 μL of test compound in triplicate in a 96-well plate. After 5 min of incubation at ambient temperature, 70 μL of R2 (120 mmol/L phosphate buffer, 400 mmol/L sodium hydroxide, and 10 mmol/L sodium hypochlorite) was added to the reaction mixture ([Rauf et al., 2013]). After another incubation period of 10 min at room temperature, the absorbance was measured using a microplate reader (Bio-Tek, United States) at a particular wavelength of 630 nm. […] The following equation was used to determine the percentage of inhibition for each test compound. Percentage inhibition=100–Absorbance of test compound/ Absorbance of negative control×100
The IC50 values of test compounds (5a-o; 7a-k) at various concentrations were determined by analyzing the data, obtained from in vitro urease inhibitory assay, by GraphPad Prism version 8.0.2 (GraphPad, California, United States).

[2] = test system: human blood cells; test: In vitro hemocompatibility screening (hemolysis); format: cell-based; conditions: hemolysis percentage at 0.5 mg/mL and 1 mg/mL nearer to that of PBS
Description: 1-(3-nitropyridin-2-yl)piperazine 3 and its derivatives (5b, 5c, 5i; 7e, 7h) were analyzed for hemolysis activity due to their remarkable urease inhibition potential. […] Experimental data on hemolysis percentage have been depicted in Figure 5.
Hemolysis is the rupturing of the cell membrane of red blood cells that causes the expulsion of hemoglobin into the blood plasma. To analyze the effects of 1-(3-nitropyridin-2-yl)piperazine 3 and its derivatives (5b, 5c, 5i; 7e, 7h) on human blood, a hemolysis analysis was carried out (Supplementary Figure S69). About 5 mL fresh sample of human blood was collected from a volunteer and transferred to a vacutainer tube containing EDTA to prevent coagulation. The ultracentrifugation of the blood sample was carried out at 3,000 rpm for 20 min and the separated plasma was discarded. The blood cells were washed about three times by using a double volume of phosphate buffer solution (PBS) (pH = 7.4). […] To quantify hemoglobin in test samples, the absorbance of the supernatant was measured at 540 nm ([Munawwar et al., 2023]). From the absorbance value, the hemolysis percentage was determined by the following formula: Hemolysis %=Absorbance of test sample−Absorbance of negative control/[…]

[3] = test system: urease; conditions: 2022, cited from earlier work

jack bean urease, sequence (P07374 whole entry, looked up): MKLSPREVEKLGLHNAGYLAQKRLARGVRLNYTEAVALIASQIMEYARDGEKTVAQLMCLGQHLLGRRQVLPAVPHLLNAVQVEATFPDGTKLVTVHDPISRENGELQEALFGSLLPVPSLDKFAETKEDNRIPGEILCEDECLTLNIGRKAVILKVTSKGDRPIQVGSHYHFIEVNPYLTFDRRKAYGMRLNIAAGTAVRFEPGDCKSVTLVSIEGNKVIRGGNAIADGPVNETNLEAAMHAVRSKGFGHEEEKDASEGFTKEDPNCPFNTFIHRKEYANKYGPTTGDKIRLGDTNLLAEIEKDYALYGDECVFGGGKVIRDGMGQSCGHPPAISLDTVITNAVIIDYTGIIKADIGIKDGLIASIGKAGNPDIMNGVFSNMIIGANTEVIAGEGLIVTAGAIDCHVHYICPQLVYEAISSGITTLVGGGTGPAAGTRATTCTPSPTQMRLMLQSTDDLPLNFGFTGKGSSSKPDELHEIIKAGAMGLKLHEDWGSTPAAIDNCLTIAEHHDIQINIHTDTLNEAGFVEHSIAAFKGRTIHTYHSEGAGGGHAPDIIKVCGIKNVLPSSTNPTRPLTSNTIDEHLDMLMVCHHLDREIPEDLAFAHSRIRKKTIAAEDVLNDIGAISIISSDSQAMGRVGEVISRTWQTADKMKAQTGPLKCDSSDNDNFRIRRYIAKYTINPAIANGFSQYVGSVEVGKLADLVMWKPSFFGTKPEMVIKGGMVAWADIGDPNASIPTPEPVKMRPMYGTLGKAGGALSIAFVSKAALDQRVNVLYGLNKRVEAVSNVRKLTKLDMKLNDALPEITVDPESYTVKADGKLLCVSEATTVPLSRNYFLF

SMILES	melting point [°C]	IC50 [1] [µM]	biocompatibility in human blood cells (hemolysis percentage) [2]	IC50 ([3]; in Figure 3, ref Moghadam et al.) [µM]	IC50 ([3]; in Figure 3, ref Naseer et al.) [µM]
O=C(CN1CCN(c2ncccc2[N+](=O)[O-])CC1)Nc1ccccc1 [5a, 2-(4-(3-Nitropyridin-2-yl)piperazin-1-yl)-N-phenylacetamide]	79 to 80	3.58 ± 0.84	–	–	–
O=C(CN1CCN(c2ncccc2[N+](=O)[O-])CC1)Nc1ccccc1Cl [5b, N-(2-Chlorophenyl)-2-(4-(3-nitropyridin-2-yl)piperazin-1-yl)acetamide]	–	2 ± 0.73	–	–	–
O=C(CN1CCN(c2ncccc2[N+](=O)[O-])CC1)Nc1cccc(Cl)c1 [5c, N-(3-Chlorophenyl)-2-(4-(3-nitropyridin-2-yl)piperazin-1-yl)acetamide]	71 to 73	2.13 ± 0.82	–	–	–
O=C(CN1CCN(c2ncccc2[N+](=O)[O-])CC1)Nc1ccc(Cl)cc1 [5d, N-(4-Chlorophenyl)-2-(4-(3-nitropyridin-2-yl)piperazin-1-yl)acetamide]	99 to 100	8.25 ± 0.41	–	–	–
O=C(CN1CCN(c2ncccc2[N+](=O)[O-])CC1)Nc1ccccc1Br [5e, N-(2-Bromophenyl)-2-(4-(3-nitropyridin-2-yl)piperazin-1-yl)acetamide]	109 to 110	4.47 ± 0.44	–	–	–
O=C(CN1CCN(c2ncccc2[N+](=O)[O-])CC1)Nc1cccc(Br)c1 [5f, N-(3-Bromophenyl)-2-(4-(3-nitropyridin-2-yl)piperazin-1-yl)acetamide]	101 to 102	5.24 ± 0.45	–	–	–
O=C(CN1CCN(c2ncccc2[N+](=O)[O-])CC1)Nc1ccc(Br)cc1 [5g, N-(4-Bromophenyl)-2-(4-(3-nitropyridin-2-yl)piperazin-1-yl)acetamide]	115 to 116	8.43 ± 0.41	–	–	–
O=C(CN1CCN(c2ncccc2[N+](=O)[O-])CC1)Nc1ccccc1[N+](=O)[O-] [5h, N-(2-Nitrophenyl)-2-(4-(3-nitropyridin-2-yl)piperazin-1-yl)acetamide]	113 to 115	7.12 ± 0.39	–	–	–
O=C(CN1CCN(c2ncccc2[N+](=O)[O-])CC1)Nc1cccc([N+](=O)[O-])c1 [5i, N-(3-Nitrophenyl)-2-(4-(3-nitropyridin-2-yl)piperazin-1-yl)acetamide]	139 to 141	2.56 ± 0.55	–	–	–
O=C(CN1CCN(c2ncccc2[N+](=O)[O-])CC1)Nc1ccc([N+](=O)[O-])cc1 [5j, N-(4-Nitrophenyl)-2-(4-(3-nitropyridin-2-yl)piperazin-1-yl)acetamide]	145 to 146	4.19 ± 0.41	–	–	–
Cc1ccccc1NC(=O)CN1CCN(c2ncccc2[N+](=O)[O-])CC1 [5k, 2-(4-(3-Nitropyridin-2-yl)piperazin-1-yl)-N-(ortho-tolyl)acetamide]	105 to 106	14.1 ± 0.67	–	–	–
Cc1cccc(NC(=O)CN2CCN(c3ncccc3[N+](=O)[O-])CC2)c1 [5l, 2-(4-(3-Nitropyridin-2-yl)piperazin-1-yl)-N-(meta-tolyl)acetamide]	95 to 96	7.14 ± 0.46	–	–	–
Cc1ccc(NC(=O)CN2CCN(c3ncccc3[N+](=O)[O-])CC2)cc1 [5m, 2-(4-(3-Nitropyridin-2-yl)piperazin-1-yl)-N-(para-tolyl)acetamide]	112 to 113	9.37 ± 0.4	–	–	–
COc1ccccc1NC(=O)CN1CCN(c2ncccc2[N+](=O)[O-])CC1 [5n, N-(2-Methoxyphenyl)-2-(4-(3-nitropyridin-2-yl)piperazin-1-yl)acetamide]	120 to 121	5.33 ± 0.44	–	–	–
COc1ccc(NC(=O)CN2CCN(c3ncccc3[N+](=O)[O-])CC2)cc1 [5o, N-(4-Methoxyphenyl)-2-(4-(3-nitropyridin-2-yl)piperazin-1-yl)acetamide]	107 to 108	5.21 ± 0.47	–	–	–
CC(C(=O)Nc1ccccc1)N1CCN(c2ncccc2[N+](=O)[O-])CC1 (stereo not shown) [7a, 2-(4-(3-Nitropyridin-2-yl)piperazin-1-yl)-N-phenylpropanamide]	92 to 94	7.41 ± 0.44	–	–	–
CC(C(=O)Nc1cccc(Cl)c1)N1CCN(c2ncccc2[N+](=O)[O-])CC1 (stereo not shown) [7b, N-(3-Chlorophenyl)-2-(4-(3-nitropyridin-2-yl)piperazin-1-yl)propanamide]	107 to 109	6.7 ± 0.37	–	–	–
CC(C(=O)Nc1ccc(Cl)cc1)N1CCN(c2ncccc2[N+](=O)[O-])CC1 (stereo not shown) [7c, N-(4-Chlorophenyl)-2-(4-(3-nitropyridin-2-yl)piperazin-1-yl)propanamide]	57 to 59	7.38 ± 0.37	–	–	–
CC(C(=O)Nc1ccccc1Br)N1CCN(c2ncccc2[N+](=O)[O-])CC1 (stereo not shown) [7d, N-(2-Bromophenyl)-2-(4-(3-nitropyridin-2-yl)piperazin-1-yl)propanamide]	91 to 94	6.74 ± 0.49	–	–	–
CC(C(=O)Nc1ccccc1[N+](=O)[O-])N1CCN(c2ncccc2[N+](=O)[O-])CC1 (stereo not shown) [7e, N-(2-Nitrophenyl)-2-(4-(3-nitropyridin-2-yl)piperazin-1-yl)propanamide]	–	2.24 ± 1.63	more biocompatible; also recorded: good biocompatibility	–	–
CC(C(=O)Nc1cccc([N+](=O)[O-])c1)N1CCN(c2ncccc2[N+](=O)[O-])CC1 (stereo not shown) [7f, N-(3-Nitrophenyl)-2-(4-(3-nitropyridin-2-yl)piperazin-1-yl)propanamide]	120 to 121	7.66 ± 0.37	–	–	–
CC(C(=O)Nc1ccc([N+](=O)[O-])cc1)N1CCN(c2ncccc2[N+](=O)[O-])CC1 (stereo not shown) [7g, N-(4-Nitrophenyl)-2-(4-(3-nitropyridin-2-yl)piperazin-1-yl)propanamide]	159 to 161	6.13 ± 0.4	–	–	–
Cc1ccccc1NC(=O)C(C)N1CCN(c2ncccc2[N+](=O)[O-])CC1 (stereo not shown) [7h, N-(ortho-Tolyl)-2-(4-(3-nitropyridin-2-yl)piperazin-1-yl)propanamide]	90 to 92	3.01 ± 0.45	more biocompatible; also recorded: good biocompatibility	–	–
Cc1ccc(NC(=O)C(C)N2CCN(c3ncccc3[N+](=O)[O-])CC2)cc1 (stereo not shown) [7i, N-(para-Tolyl)-2-(4-(3-nitropyridin-2-yl)piperazin-1-yl)propanamide]	88 to 89	5.65 ± 0.4	–	–	–
COc1ccccc1NC(=O)C(C)N1CCN(c2ncccc2[N+](=O)[O-])CC1 (stereo not shown) [7j, N-(2-Methoxyphenyl)-2-(4-(3-nitropyridin-2-yl)piperazin-1-yl)propanamide]	108 to 110	5.32 ± 0.41	–	–	–
COc1ccc(NC(=O)C(C)N2CCN(c3ncccc3[N+](=O)[O-])CC2)cc1 (stereo not shown) [7k, N-(4-Methoxyphenyl)-2-(4-(3-nitropyridin-2-yl)piperazin-1-yl)propanamide]	62 to 64	5.95 ± 0.43	–	–	–
COc1ccccc1N1CCN(c2ccc(/C=N/NC(N)=O)cc2)CC1 [Piperazine based semicarbazone]	–	–	–	3.95	–
NC(=S)N/N=C/c1ccc(Cl)cn1 [Pyridine carbothioamide]	–	–	–	–	1.07
O=[N+]([O-])c1cccnc1N1CCNCC1 [compound 3, 1-(3-Nitropyridin-2-yl)piperazine]	–	3.9 ± 1.91	–	–	–
